Measured values as given in the supplement of paper PMC10307832.

Assays:
Test in all cases: relative viability (nuclei count vs DMSO), 5 days (fraction); higher = more cells survive
LCLC-97TM1 = test system: LCLC-97TM1
Procedure, shortened: (§1)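 Relative viability divides the nuclei count in treated wells by that in vehicle wells. Lung cancer cell lines were seeded in 1536-well plates, dosed by pin tool the next day, and fixed and stained after 5 days in one step with final 0.05% Triton X-100, 1% formaldehyde and 1 ug/ml Hoechst. Dosing was a single drug or a fixed anchor-drug dose plus five library-drug doses (not always all listed) in √10 steps, and values are medians of duplicate plates imaged at 4×.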

NCI-H23 = test system: NCI-H23
Procedure, shortened: as §1

NCI-H441 = test system: NCI-H441
Procedure, shortened: as §1

LU99A = test system: LU99A
Procedure, shortened: as §1

NCI-H322M = test system: NCI-H322M
Procedure, shortened: as §1

NCI-H460 = test system: NCI-H460
Procedure, shortened: as §1

LOU-NH91 = test system: LOU-NH91
Procedure, shortened: as §1

NCI-H2126 = test system: NCI-H2126
Procedure, shortened: as §1

NCI-H1915 = test system: NCI-H1915
Procedure, shortened: as §1

PC-3 [JPC-3] = test system: PC-3 [JPC-3]
Procedure, shortened: as §1

NCI-H1755 = test system: NCI-H1755
Procedure, shortened: as §1

BEN = test system: BEN
Procedure, shortened: as §1

HARA = test system: HARA
Procedure, shortened: as §1

NCI-H1395 = test system: NCI-H1395
Procedure, shortened: as §1

NCI-H2170 = test system: NCI-H2170
Procedure, shortened: as §1

NCI-H1944 = test system: NCI-H1944
Procedure, shortened: as §1

NCI-H650 = test system: NCI-H650
Procedure, shortened: as §1

A-427 = test system: A-427
Procedure, shortened: as §1

SK-LU-1 = test system: SK-LU-1
Procedure, shortened: as §1

NCI-H1793 = test system: NCI-H1793
Procedure, shortened: as §1

NCI-H2023 = test system: NCI-H2023
Procedure, shortened: as §1

NCI-H1666 = test system: NCI-H1666
Procedure, shortened: as §1

LXF-289 = test system: LXF-289
Procedure, shortened: as §1

Cc1cnc(-c2cnc(NCCNc3ccc(C#N)cn3)nc2-c2ccc(Cl)cc2Cl)[nH]1 + Nc1nc2[nH]cc(CCc3ccc(C(=O)N[C@@H](CCC(=O)O)C(=O)O)cc3)c2c(=O)[nH]1 [Pemetrexed] (partner 0.2 µM) showed a relative viability (LCLC-97TM1; first compound 0.08 µM) of 0.176, a relative viability (LCLC-97TM1; first compound 0.253 µM) of 0.183 and a relative viability (LCLC-97TM1; first compound 0.8 µM) of 0.173. For the same molecule, the relative viability (LCLC-97TM1; first compound 2.53 µM) was 0.188, the relative viability (NCI-H23; first compound 0.08 µM) was 0.667 and the relative viability (NCI-H23; first compound 0.253 µM) was 0.634. The relative viability (NCI-H23; first compound 0.8 µM) was 0.486, the relative viability (NCI-H23; first compound 2.53 µM) was 0.438 and the relative viability (NCI-H441; first compound 0.08 µM) was 0.271. It also gave a relative viability (NCI-H441; first compound 0.8 µM) of 0.279, a relative viability (NCI-H441; first compound 2.53 µM) of 0.236 and a relative viability (LU99A; first compound 0.08 µM) of 0.177. The relative viability (LU99A; first compound 0.253 µM) was 0.201, the relative viability (LU99A; first compound 0.8 µM) was 0.191 and the relative viability (LU99A; first compound 2.53 µM) was 0.198. For the same molecule, the relative viability (NCI-H322M; first compound 0.08 µM) was 0.603, the relative viability (NCI-H322M; first compound 0.253 µM) was 0.584 and the relative viability (NCI-H322M; first compound 0.8 µM) was 0.548. The relative viability (NCI-H322M; first compound 2.53 µM) was 0.562, the relative viability (NCI-H460; first compound 0.08 µM) was 0.073 and the relative viability (NCI-H460; first compound 0.253 µM) was 0.0754. For the same molecule, the relative viability (NCI-H460; first compound 0.8 µM) was 0.0676, the relative viability (NCI-H460; first compound 2.53 µM) was 0.0722 and the relative viability (LOU-NH91; first compound 0.08 µM) was 0.376. The relative viability (LOU-NH91; first compound 0.253 µM) was 0.383, the relative viability (LOU-NH91; first compound 0.8 µM) was 0.399 and the relative viability (LOU-NH91; first compound 2.53 µM) was 0.349. For the same molecule, the relative viability (NCI-H2126; first compound 0.08 µM) was 0.706, the relative viability (NCI-H2126; first compound 0.253 µM) was 0.642 and the relative viability (NCI-H2126; first compound 0.8 µM) was 0.634. It also gave a relative viability (NCI-H2126; first compound 2.53 µM) of 0.618, a relative viability (NCI-H1915; first compound 0.08 µM) of 0.49 and a relative viability (NCI-H1915; first compound 0.8 µM) of 0.438. The relative viability (NCI-H1915; first compound 2.53 µM) was 0.398, the relative viability (PC-3 [JPC-3]; first compound 0.08 µM) was 1.08 and the relative viability (PC-3 [JPC-3]; first compound 0.253 µM) was 1.02. It also gave a relative viability (PC-3 [JPC-3]; first compound 0.8 µM) of 1.12, a relative viability (PC-3 [JPC-3]; first compound 2.53 µM) of 0.969 and a relative viability (NCI-H1755; first compound 0.08 µM) of 0.403. It also gave a relative viability (NCI-H1755; first compound 0.253 µM) of 0.437, a relative viability (NCI-H1755; first compound 0.8 µM) of 0.421 and a relative viability (NCI-H1755; first compound 2.53 µM) of 0.565. It also gave a relative viability (BEN; first compound 0.08 µM) of 0.787, a relative viability (BEN; first compound 0.253 µM) of 0.751 and a relative viability (BEN; first compound 0.8 µM) of 0.771. The relative viability (BEN; first compound 2.53 µM) was 0.802, the relative viability (HARA; first compound 0.08 µM) was 0.277 and the relative viability (HARA; first compound 0.253 µM) was 0.207. The relative viability (HARA; first compound 0.8 µM) was 0.255, the relative viability (HARA; first compound 2.53 µM) was 0.235 and the relative viability (NCI-H1395; first compound 0.08 µM) was 0.958. For the same molecule, the relative viability (NCI-H1395; first compound 0.253 µM) was 0.823, the relative viability (NCI-H1395; first compound 0.8 µM) was 0.826 and the relative viability (NCI-H1395; first compound 2.53 µM) was 0.756. For the same molecule, the relative viability (NCI-H2170; first compound 0.08 µM) was 0.253, the relative viability (NCI-H2170; first compound 2.53 µM) was 0.25 and the relative viability (NCI-H1944; first compound 0.08 µM) was 0.604. For the same molecule, the relative viability (NCI-H1944; first compound 0.8 µM) was 0.633, the relative viability (NCI-H1944; first compound 2.53 µM) was 0.678 and the relative viability (NCI-H650; first compound 0.08 µM) was 0.915. It also gave a relative viability (NCI-H650; first compound 0.253 µM) of 0.92, a relative viability (NCI-H650; first compound 0.8 µM) of 0.934 and a relative viability (NCI-H650; first compound 2.53 µM) of 0.904. It also gave a relative viability (A-427; first compound 0.08 µM) of 0.981, a relative viability (A-427; first compound 0.253 µM) of 0.901 and a relative viability (A-427; first compound 0.8 µM) of 0.928. For the same molecule, the relative viability (A-427; first compound 2.53 µM) was 0.927, the relative viability (SK-LU-1; first compound 0.08 µM) was 0.966 and the relative viability (SK-LU-1; first compound 0.253 µM) was 0.97. It also gave a relative viability (SK-LU-1; first compound 0.8 µM) of 0.975, a relative viability (SK-LU-1; first compound 2.53 µM) of 0.823 and a relative viability (NCI-H1793; first compound 0.08 µM) of 1.04. The relative viability (NCI-H1793; first compound 0.253 µM) was 0.839, the relative viability (NCI-H1793; first compound 0.8 µM) was 0.794 and the relative viability (NCI-H1793; first compound 2.53 µM) was 1.14. For the same molecule, the relative viability (NCI-H2023; first compound 0.08 µM) was 0.283, the relative viability (NCI-H2023; first compound 0.253 µM) was 0.229 and the relative viability (NCI-H2023; first compound 0.8 µM) was 0.199. The relative viability (NCI-H2023; first compound 2.53 µM) was 0.261, the relative viability (NCI-H1666; first compound 0.08 µM) was 0.91 and the relative viability (NCI-H1666; first compound 0.253 µM) was 0.824. For the same molecule, the relative viability (NCI-H1666; first compound 0.8 µM) was 0.843, the relative viability (NCI-H1666; first compound 2.53 µM) was 0.747 and the relative viability (LXF-289; first compound 0.08 µM) was 0.91. The relative viability (LXF-289; first compound 0.253 µM) was 0.818, the relative viability (LXF-289; first compound 0.8 µM) was 0.829 and the relative viability (LXF-289; first compound 2.53 µM) was 0.962.
